In US20210236476A1, “METHODS OF TREATING CANCER WITH SMALL MOLECULE PD-L1 INHIBITORS” (CHEMOCENTRYX, INC., priority 2018, published 2021) one finds IC50 data, which are given here for 49 compounds.

Molecules are shown by their SMILES. Some results are limits rather than exact numbers.

The target of the test is T1, human PD-L1 / human PD-1 interaction (Homo sapiens, UniProt Q9NZQ7).
T1 construct: purchased R&D (PD-L1); ACRO Biosystems (PD-1, biotin)
The test is described as follows: ELISA of PD-1/PD-L1 interaction. The class given is binding. As for the experimental part: The activity of Compound 1.041 was assessed with an ELISA assay assessing the direct binding of recombinant PD-1 and PD-L1 proteins (FIG. 1A), a dimerization ELISA assay assessing the direct binding/dimerization of recombinant PD-L1 proteins (FIG. 1B), a cell based assay measuring the downstream signaling following the interaction of PD-1 and PD-L1 using a Luciferase reporter assay with cell lines overexpressing PD-1 and PD-L1 (FIG. 1C), and a mixed lymphocyte reaction assay measuring the functional outcome of upregulation of IFNg secretion, using allogenic primary human immune cells (FIG. 1D). Briefly, the mixed lymophocyte reaction assay was performed as follows: Dendritic cells and CD4+T Cells from unmatched donors were cultured together for 5 days in 96 well-flat bottom plates. Test compound was added as indicated at starting concentration of 1 μM with 1:4 dilutions with DMSO. Supernatants were harvested after 5 days of incubation and detection of human IFNg was performed by ELISA. […]
96 Well plates were coated with 1 μg/mL of human PD-L1 (obtained from R&D) in
PBS overnight at 4° C. The wells were then blocked with 2% BSA in PBS (WN) with 0.05% TWEEN-20 for 1 hour at 37° C. The plates were washed 3 times with PBS/0.05% TWEEN-20 and the compounds were serial diluted (1:5) in dilution medium and added to the ELISA plates. Human PD-1 and biotin 0.3μg/mL (ACRO Biosystems) were added and incubated for 1 hour at 37° C. then washed 3 times with PBS/0.05% TWEEN-20. A second block was performed with 2% BSA in PBS (WN)/0.05% TWEEN-20 for 10 min at 37° C. and was washed 3 times with PBS/0.05% TWEEN-20. Streptavidin—HRP was added for 1 hour at 37° C. then washed 3 times with PBS/0.05% TWEEN-20. TMB substrate was added and reacted for 20 min at 37° C. A stop solution (2 N aqueous H2SO4) was added. The absorbance was read at 450 nm using a micro-plate spectrophotometer.
On the technique in general: ELISA stands for enzyme-linked immunosorbent assay.

T1 sequence (Q9NZQ7 19-239 limits assumed): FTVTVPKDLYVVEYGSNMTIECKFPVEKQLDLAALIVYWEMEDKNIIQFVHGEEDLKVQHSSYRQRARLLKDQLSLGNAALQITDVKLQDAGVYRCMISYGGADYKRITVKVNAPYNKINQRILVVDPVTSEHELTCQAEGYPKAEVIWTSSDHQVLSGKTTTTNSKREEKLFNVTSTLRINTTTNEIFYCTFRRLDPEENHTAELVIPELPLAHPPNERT

Broadly, the IC50 is the concentration at which inhibition is half-maximal. A lower IC50 goes with higher potency. `CCOc1cc(O[C@H]2CCc3c(-c4cccc(OCCCN5CC[C@@H](O)C5)c4C)cccc32)c(Cl)cc1CN[C@@H](CO)C(=O)O` had an IC50 below 5 nM. Turning to `CCOc1cc(O[C@H]2CCc3c(-c4cccc(OCCCN5CC[C@@H](O)C5)c4C)cccc32)c(Cl)cc1CN[C@H](C(=O)O)[C@@H](C)O`, the IC50 was below 5 nM. `CCOc1cc(O[C@H]2CCc3c(-c4cccc(OCCCN5CC[C@@H](O)C5)c4C)cccc32)c(Cl)cc1CNC(C)(CO)C(=O)O` (stereo partly shown) returned an IC50 below 5 nM. As for `Cc1c(OCCCN2CCC[C@@H](O)C2)cccc1-c1cccc2c1CC[C@@H]2Oc1cc(OCc2cncc(C#N)c2)c(CN[C@H](C(=O)O)[C@@H](C)O)cc1Cl`, the figure is below 5 nM; as for `Cc1c(OCCCN2CCC[C@H](O)C2)cccc1-c1cccc2c1CC[C@@H]2Oc1cc(OCc2cncc(C#N)c2)c(CN[C@H](C(=O)O)[C@@H](C)O)cc1Cl`, below 5 nM; as for `Cc1c(OCCCN2CCC(O)CC2)cccc1-c1cccc2c1CC[C@@H]2Oc1cc(OCc2cc(C#N)cc(C#N)c2)c(CN[C@@](C)(CO)C(=O)O)cc1Cl`, below 5 nM. As to `N#Cc1cncc(COc2cc(O[C@H]3CCc4c(-c5cccc(OCCCN6CCC(F)CC6)c5Cl)cccc43)c(Cl)cc2CN[C@@H]2CCCC[C@@H]2O)c1`, the IC50 was below 5 nM. Compound `N#Cc1cncc(COc2cc(O[C@H]3CCc4c(-c5cccc(OCCCN6CC[C@H](F)C6)c5Cl)cccc43)c(Cl)cc2CN[C@@H]2CCCC[C@@H]2O)c1` returned an IC50 below 5 nM. In turn, `CC1(O)CN(CCCOc2cccc(-c3cccc4c3CC[C@@H]4Oc3cc(OCc4cncc(C#N)c4)c(CN[C@@](C)(CO)C(=O)O)cc3Cl)c2Cl)C1` returned an IC50 below 5 nM. The compound `CCOC(=O)[C@](C)(CO)NCc1cc(Cl)c(O[C@H]2CCc3c(-c4cccc(OCCCN5CC(O)C5)c4Cl)cccc32)cc1OCc1cncc(C#N)c1` registered a 50% inhibitory concentration (IC50) below 5 nM. `C[C@@](CO)(NCc1cc(Cl)c(O[C@@H]2c3cccc(-c4cccc(OCCCN5CC(O)C5)c4Cl)c3C[C@@H]2F)cc1OCc1cncc(C#N)c1)C(=O)O` returned an IC50 below 5 nM. On to `C[C@@](CO)(NCc1cc(Cl)c(O[C@@H]2c3cccc(-c4cccc(OCCCN5CC(F)C5)c4Cl)c3C[C@@H]2F)cc1OCc1cncc(C#N)c1)C(=O)O`, for which the IC50 is below 5 nM.

In turn, `CCOc1cc(O[C@H]2CCc3c(-c4cccc(OCCCN5CC(O)C5)c4Cl)cccc32)c(Cl)cc1CN[C@@](C)(CO)C(=O)O` had an IC50 below 5 nM. As to `CC(CO)(NCc1cc(Cl)c(O[C@H]2CCc3c(-c4cccc(OCCCN5CC(O)C5)c4Cl)cccc32)cc1OCc1cccnc1)C(=O)O` (stereo partly shown), the IC50 is below 5 nM. Take `CC(CO)(NCc1cc(Cl)c(O[C@H]2CCc3c(-c4cccc(OCCCN5CCCCC5)c4Cl)cccc32)cc1OCc1cncc(C#N)c1)C(=O)O` (stereo partly shown): the IC50 was below 5 nM. With `CC(CO)(NCc1cc(Cl)c(O[C@H]2CCc3c(-c4cccc(OCCCN5CCOCC5)c4Cl)cccc32)cc1OCc1cncc(C#N)c1)C(=O)O` (stereo partly shown), the IC50 was below 5 nM. The compound `CC(CO)(NCc1cc(Cl)c(O[C@H]2CCc3c(-c4cccc(OCCCN5CC(F)C5)c4Cl)cccc32)cc1OCc1cncc(C#N)c1)C(=O)O` (stereo partly shown) showed an IC50 below 5 nM.

`C[C@@](CO)(NCc1cc(Cl)c(OC2CCc3c(-c4cccc(OCCCN5CC(O)C5)c4Cl)cc(F)cc32)cc1OCc1cncc(C#N)c1)C(=O)O` (stereo partly shown) returned an IC50 below 5 nM.

Turning to `CC(CO)(NCc1cc(Cl)c(O[C@H]2CCc3c(-c4cccc(OCCCN5CC6(CC(O)C6)C5)c4Cl)cccc32)cc1OCc1cncc(C#N)c1)C(=O)O` (stereo partly shown), the 50% inhibitory concentration (IC50) is below 5 nM. In turn, `CC(CO)(NCc1cc(Cl)c(O[C@H]2CCc3c(-c4cccc(OCCCN5CC6(CC(F)C6)C5)c4Cl)cccc32)cc1OCc1cncc(C#N)c1)C(=O)O` (stereo partly shown) had an IC50 below 5 nM. In the case of `N#Cc1cncc(COc2cc(O[C@H]3CCc4c(-c5cccc(OCCCN6CC(O)C6)c5Cl)cccc43)c(Cl)cc2CN2CCCC3(C2)NC(=O)NC3=O)c1` (stereo partly shown), the IC50 was below 5 nM. With `N#Cc1cncc(COc2cc(O[C@H]3CCc4c(-c5cccc(OCCCN6CC(O)C6)c5Cl)cccc43)c(Cl)cc2CN[C@@H]2CCCC[C@@H]2O)c1` the figure was below 5 nM; with `N#Cc1cncc(COc2cc(O[C@H]3CCc4c(-c5cccc(OCCCN6CCC(F)CC6)c5Cl)cccc43)c(Cl)cc2CNC[C@@H]2CCC(=O)N2)c1`, below 5 nM.

`C[C@@H](O)[C@H](NCc1cc(Cl)c(O[C@H]2CCc3c(-c4cccc(OCCCN5CC(O)C5)c4Cl)cccc32)cc1OCc1cncc(C#N)c1)C(=O)NS(C)(=O)=O` returned an IC50 below 5 nM. With `N#Cc1cncc(COc2cc(O[C@H]3CCc4c(-c5cccc(OCCCN6CC(O)C6)c5Cl)cccc43)c(Cl)cc2CN2CC(O)C2)c1` the figure was below 5 nM; with `N#Cc1cncc(COc2cc(O[C@H]3CCc4c(-c5cccc(OCCCN6CC(O)C6)c5Cl)cccc43)c(Cl)cc2CN2CCC(O)CC2)c1`, below 5 nM; with `C[C@@H](O)[C@H](NCc1cc(Cl)c(O[C@H]2CCc3c(-c4cccc(OCCCN5CC(O)C5)c4Cl)cccc32)cc1OCc1cncc(C#N)c1)C(N)=O`, below 5 nM. `Cc1c(OCCCN2CCC(F)CC2)cccc1-c1cccc2c1CC[C@@H]2Oc1cc(OCc2cncc(C#N)c2)c(CNC[C@@H]2CCC(=O)N2)cc1Cl` yielded an IC50 below 5 nM. As for `N#Cc1cncc(COc2cc(O[C@H]3CCc4c(-c5cccc(OCCCN6CC(O)C6)c5Cl)cccc43)c(Cl)cc2CN2CC[C@@H](O)C2)c1`, the figure is below 5 nM; as for `N#Cc1cncc(COc2cc(O[C@H]3CCc4c(-c5cccc(OCCCN6CC(O)C6)c5Cl)cccc43)c(Cl)cc2CNC[C@@H]2CCC(=O)N2)c1`, below 5 nM; as for `N#Cc1cncc(COc2cc(O[C@H]3CCc4c(-c5cccc(OCCCN6CC(O)C6)c5Cl)cccc43)c(Cl)cc2CN2CC3(CC(O)C3)C2)c1`, below 5 nM. Compound `CC(C)(O)CNCc1cc(Cl)c(O[C@H]2CCc3c(-c4cccc(OCCCN5CC(O)C5)c4Cl)cccc32)cc1OCc1cncc(C#N)c1` came in with an IC50 below 5 nM.

The compound `C[C@@H](O)[C@H](NCc1cc(Cl)c(O[C@H]2CCc3c(-c4cccc(OCCCN5CC(O)C5)c4Cl)cccc32)cc1OCc1cncc(C#N)c1)C(=O)O` yielded an IC50 below 5 nM.

As for `N#Cc1cncc(COc2cc(O[C@H]3CCc4c(-c5cccc(OCCCN6CC(O)C6)c5Cl)cccc43)c(Cl)cc2CNCC(=O)O)c1`, the IC50 was below 5 nM. As to `CCCC(CO)(NCc1cc(Cl)c(O[C@H]2CCc3c(-c4cccc(OCCCN5CC(O)C5)c4Cl)cccc32)cc1OCc1cncc(C#N)c1)C(=O)O` (stereo partly shown), the IC50 is below 5 nM.

In turn, `Cc1c(OCCCN2CCC(F)CC2)cccc1-c1cccc2c1CC[C@@H]2Oc1cc(OCc2cncc(C#N)c2)c(CNC[C@H]2CCC(=O)N2)cc1Cl` came in with an IC50 below 5 nM. `N#Cc1cncc(COc2cc(O[C@H]3CCc4c(-c5cccc(OCCCN6CCC(O)CC6)c5Cl)cccc43)c(Cl)cc2CNC[C@@H]2CCC(=O)N2)c1` gave an IC50 below 5 nM. Consider `N#Cc1cncc(COc2cc(O[C@H]3CCc4c(-c5cccc(OCCCN6CCC(O)CC6)c5Cl)cccc43)c(Cl)cc2CNC[C@H]2CCC(=O)N2)c1`, for which the IC50 is below 5 nM. With `N#Cc1cncc(COc2cc(O[C@H]3CCc4c(-c5cccc(OCCCN6CCC(F)CC6)c5Cl)cccc43)c(Cl)cc2CNC[C@H]2CCC(=O)N2)c1` the figure was below 5 nM. Take `N#Cc1cncc(COc2cc(O[C@H]3CCc4c(-c5cccc(OCCCN6CCC(F)CC6)c5Cl)cccc43)c(Cl)cc2CN2CC[C@@H](O)C2)c1`: the IC50 is below 5 nM. In turn, `N#Cc1cncc(COc2cc(O[C@H]3CCc4c(-c5cccc(OCCCN6CCC(F)CC6)c5Cl)cccc43)c(Cl)cc2CN2CC[C@@H](F)C2)c1` had an IC50 below 5 nM. `CC1(O)CN(Cc2cc(Cl)c(O[C@H]3CCc4c(-c5cccc(OCCCN6CCC(F)CC6)c5Cl)cccc43)cc2OCc2cncc(C#N)c2)C1` gave an IC50 below 5 nM. The compound `CC1(O)CCN(Cc2cc(Cl)c(O[C@H]3CCc4c(-c5cccc(OCCCN6CCC(F)CC6)c5Cl)cccc43)cc2OCc2cncc(C#N)c2)CC1` registered an IC50 below 5 nM. In the case of `N#Cc1cncc(COc2cc(O[C@H]3CCc4c(-c5cccc(OCCCN6CC7(CC(O)C7)C6)c5Cl)cccc43)c(Cl)cc2CNC[C@@H]2CCC(=O)N2)c1`, the IC50 was below 5 nM. As for `N#Cc1cncc(COc2cc(O[C@H]3CCc4c(-c5cccc(OCCCN6CC7(CC(O)C7)C6)c5Cl)cccc43)c(Cl)cc2CNC[C@H]2CCC(=O)N2)c1`, the figure is below 5 nM; as for `N#Cc1cncc(COc2cc(O[C@H]3CCc4c(-c5cccc(OCCCN6CC7(CC(O)C7)C6)c5Cl)cccc43)c(Cl)cc2CN[C@@H]2CCCC[C@@H]2O)c1`, below 5 nM. As for `N#Cc1cncc(COc2cc(O[C@H]3CCc4c(-c5cccc(OCCCN6CCCCC6)c5Cl)cccc43)c(Cl)cc2CNC[C@H]2CCC(=O)N2)c1`, the figure is below 5 nM; as for `N#Cc1cncc(COc2cc(O[C@H]3CCc4c(-c5cccc(OCCCN6CCCCC6)c5Cl)cccc43)c(Cl)cc2CNC[C@@H]2CCC(=O)N2)c1`, below 5 nM. Take `N#Cc1cncc(COc2cc(O[C@H]3CCc4c(-c5cccc(OCCCN6CCCCC6)c5Cl)cccc43)c(Cl)cc2CN[C@@H]2CCCC[C@@H]2O)c1`: the IC50 was below 5 nM.
